Source: patent US20250057791A1, “PROTECTION AGAINST ARTHROPOD PARASITES WITH PURINERGIC RECEPTOR (OPR) ANTAGONISTS” (priority 2021, published 2025)
Several values for one entry are separate records, joined by “and”; a condition that tells them apart may be missing. Equal entries are not always repeated.

Assays:
[1] = test system: A. gambiae; test: Membrane feeding assay, A. gambiae; type: in vivo, Anopheles gambiae; details: for effect on feeding on solution containing ATP, in words: 20 μM ATP, CPT at 10 μM; for ID95 in μM (±s.e.m.): feeding on 20 μM ATP in the feeding solution
Experimental: Experiments with A. gambiae and A. stephensi were made in a climate chamber at 28° C. and 80% RH during the last 6 hours of scotophase. As a sugar meal can interfere with the blood meal by reducing the number of females that feed, the sucrose solution supplied in rearing cages to mosquitoes employed for feeding experiments was reduced to 5%. […] The 5% sucrose solution was presented to mosquitoes from emergence on four 1 cm diam. cotton dental rolls (Hartmann A G, Neuhausen, Switzerland) inserted in 10 ml upturned glass vials placed in holes at each corner of the rearing cage ceiling. Cotton rolls were turned daily in vials and renewed every two days. Mosquitoes were not fed blood and were deprived of sucrose 17 to 20 hours before experiments. Thirty min before a feeding experiment, between 10-25, 6-day-old females that responded to activation by human breath were removed with a mouth aspirator from the rearing cage wall and placed in polystyrol cylinders with the floor cut out (10 cm dm×15 cm high; Semadeni, Ostermundigen, Switzerland) that served as feeding cages. Each cage was covered with mosquito netting at one end and a soft polyurethane lid at the other.
Mosquitoes were fed for 30 min using a feeding system (Hemotek®, Hemotek Ltd, Blackburn, UK) consisting of 3.5 ml stainless steel reservoirs 37 mm in diameter covered with a 60-90 μm thick silicone-impregnated membrane (Kröber and Guerin, 2007 in “Feeding assays for hard ticks”, Trends in parasitology 23, 445-449; doi 10.1016/j.pt.2007.07.010). Feeding reservoirs reached a temperature of 37° C. within 10 min and were placed on the netting of feeding cages. Mosquitoes were activated using a 200 ms pulse of pure CO2 (volume 6.25 ml) from a pressurised cylinder (Carbagas, Switzerland) using a solenoid valve that caused the CO2 level in the feeding cage to rise to at least 1,500 ppm. Between 3 and 4 sets of 10 feeding cages held in a custom-built Ertacetal® POM frame were tested per day, depending of the number of female mosquitoes available from the colony.
All compounds were tested in a mosquito feeding solution (FS) consisting of 25 mM dextrose, 25 mM NaCl buffered with 8.93 mM NaHCO3 adjusted to pH 7.4. Feeding responses of A. gambiae and A. stephensi to ATP as a function of dose were tested with between 7 to 10 feeding cages per dose. Each feeding experiment with an antagonist systematically included a treatment containing the FS as negative control along with a treatment containing the FS with […] added as positive control for A. gambiae and with […] added as positive control for A. stephensi. These positive and negative controls permitted to monitor any effect of experimental day on feeding responses as a function of dose for antagonists that were recorded over several days. […] Four to 10 cages each with 10 to 29 mosquitoes were tested per antagonist dose. […] The number of feeding cages used to test other compounds and their mixtures as feeding stimulants or as feeding inhibitors is listed on Table 6. The percentage of fed mosquitoes was estimated by visual inspection of abdominal distention that is indicative of engorgement.
Pairwise comparisons of A. gambiae electrophysiological (EP) responses to ATP and adenosine alone and combined with a given dose of PR antagonist, EP responses to ATP alone and combined with a given dose of a metal modulator, and EP responses to ATP prior to and after exposure of a sensillum to a given dose of a PR antagonist were made with a one-tailed Wilcoxon signed-rank test for data showing a non-normal distribution, with a paired Student's t-test for normally distributed data showing homogeneous variance and with a Welch's t-test for normally distributed data showing non-homogeneous variance. […]

[2] = test system: Glossina pallidipes; test: Membrane feeding assay, tsetse fly Glossina pallidipes; type: in vivo; details: for effect on feeding, compound in solution containing ATP, in words: doses as in Table 10
Experimental: Flies of both species were transferred 30 min before feeding experiments to feeding cages as used for mosquitoes at 24° C., 80% RH in an environmental cabinet. Teneral tsetse were fed at 2 to 4 days old during the photophase with between 7 and 13 flies per feeding cage, covered with a black cloth. Horn flies were tested at 1 and 2 days old in the photophase with between 6 and 21 flies per cage. Both fly species were fed using small Hemotek feeding reservoirs (29 mm diameter, 1 ml) equipped with a membrane as for mosquitoes. Horn flies were fed for 15 min with feeding reservoirs placed on the cage. For tsetse, cages were closed with black mosquito netting at the bottom to allow flies to feed through the membrane placed under the cage. Feeding time (1.5 to 6 min) for tsetse was adjusted as a function of age to achieve at least 30% feeding on the positive control included in each feeding experiment. The positive control for both fly species contained 150 mM NaCl, 8.9 mM NaHCO3 with 100 μM ATP added, hereafter termed fly feeding solution (FFS). The pH of the FFS was adjusted as for ticks. The effect of TMP on feeding by G. pallidipes was also tested at 16 μg TMP/cm^2 dissolved in 140 μl hexane and applied homogeneously to the membrane surface using a micropipette. Hexane was used to treat the membrane with TMP to avoid the test compound being dispersed by fly wing-fanning. Flies of both species were activated just prior to feeding on a treatment by exhalation into the cage. Tsetse that had fed were identified with swollen abdomens and counted at the end of a feeding experiment. Since it was difficult to ascertain by eye whether a horn fly had fed on a treatment, 10 μl/ml of blue food colorant (No. 4866908, Trawosa AG, St. Gallen, Switzerland) was added. This facilitated the detection of ingested liquid when the abdomen of flies, killed by freezing, was squashed onto filter paper. Only experiments in which the feeding rate by flies was >30% on the positive control were included in analyses.
Uptake of TFS containing PR antagonists, converted to mg/h for hard ticks and weight gains in mg/25 min for soft ticks, was compared to TFS uptake in the corresponding positive controls. […] For tsetse and horn flies the percentage flies that fed per antagonist treatment served as the criterion for inhibition of feeding. As horn fly sexes emerged within 24 h, both sexes were assumed to show the same degree of appetence. In tsetse, males emerged first so a gender-related appetence could not be excluded. No sex-related feeding differences in feeding were found for testse (GLM, P>0.05) so data for the sexes were pooled. Comparisons of percentage fed flies were made using a Bayesian GLM—the most appropriate model considering the zero-inflated distributions shown by the data sets. […] P-values were corrected using Holm's FWEC in multiple comparisons of data for each tick and fly species.

Question: For `O=C(O)c1cc(C(=O)O)c(C(=O)N(Cc2cccc(Oc3ccccc3)c2)[C@H]2CCCc3ccccc32)cc1C(=O)O` [A-317491, 5-[(3-phenoxyphenyl)methyl-[(1S)-1,2,3,4-tetrahydronaphthalen-1-yl]carbamoyl]benzene-1,2,4-tricarboxylic acid], which “effect on feeding on solution containing ATP, in words” value [1] is on record?
Answer: inhibited feeding

Question: And the “% fed mosquitoes (mean ± s.e.m.), ATP + antagonist” value (“% fed mosquitoes … ATP + antagonist” below) ([1]; antagonist 1 nM + 20 μM ATP)?
Answer: 43.71%

Question: And the “% Fed, Median” value ([2]; FFS + 1 μM)?
Answer: 22.5%

Question: And the “effect on feeding, compound in solution containing ATP, in words” value [2]?
Answer: inhibited feeding

Question: What does the source list for `Nc1ncnc2c1ncn2[C@@H]1O[C@H](COP(=O)(O)OP(=O)(O)OP(=O)(O)O)[C@@H](O)[C@H]1O` [ATP, Adenosine 5′-triphosphate]?
Answer: % fed mosquitoes (mean ± s.e.m.), ATP [20 μM] ([1]; 20 μM ATP alone, positive control of the antagonist): 66.12% and 65.96% and 64.49% and 69.12% and 69.68% and 64.2% and 70.2% and 67.6%; % Engorged mosquitoes ([1]; 20 μM in feeding solution): 67.5 ± 2.1%; % feeding at the ED95 ([1]; 22.5 μM ATP): 68.15%; % mosquitoes fed at the asymptote ([1]; 45 μM ATP): 70.25%; asymptote dose of feeding response ([1]; dose dependent feeding): 45 µM; ED95, feeding stimulant ([1]; dose dependent feeding on feeding solution): 22.5 µM

Question: How did the “% fed mosquitoes … ATP + antagonist” value ([1]; antagonist 1 μM + 20 μM ATP) turn out when `Cc1ccc(C(=O)Nc2ccc(S(=O)(=O)O)c3cc(S(=O)(=O)O)cc(S(=O)(=O)O)c23)cc1NC(=O)c1cccc(NC(=O)Nc2cccc(C(=O)Nc3cc(C(=O)Nc4ccc(S(=O)(=O)O)c5cc(S(=O)(=O)O)cc(S(=O)(=O)O)c45)ccc3C)c2)c1` [Suramin] was run?
Answer: 34.86%

Question: What about the “ID95 in μM (±s.e.m.)” value [1] of the same compound?
Answer: 1.36 µM

Question: And the “% Fed, Median” value ([2]; FFS + 50 μM)?
Answer: 45.5%

Question: How did the “% Engorged mosquitoes” value ([1]; 7.5 μM TMP + 20 μM ATP + 200 μM Adenosine) turn out when `Cc1nc(C)c(C)nc1C` [TMP, 2,3,5,6-tetramethylpyrazine] was run?
Answer: 36.7 ± 6.0%

Question: And the “effect on feeding on solution containing ATP, in words” value [1]?
Answer: inhibited feeding

Question: What about the “% fed mosquitoes … ATP + antagonist” value ([1]; antagonist 10 nM + 20 μM ATP) of the same compound?
Answer: 50.47%

Question: What about the “ID95 in μM (±s.e.m.)” value [1] of the same compound?
Answer: 1.28 µM

Question: What about the “% Fed, Median” value ([2]; FFS + 16 μg/cm^2 on membrane) of the same compound?
Answer: 40%

Question: What about the “% Fed, Median” value ([2]; FFS + 150 μM) of the same compound?
Answer: 66.7%

Question: And the “effect on feeding, compound applied onto the feeding membrane, in words” value ([2]; dose as in Table 10)?
Answer: significantly inhibited feeding

Question: And the “effect on feeding, compound in solution containing ATP, in words” value [2]?
Answer: failed to inhibit feeding
